{"source": "patent US8569372B2", "about": "“Method for preventing or treating a disease, disorder or condition induced by retina ischemia” (priority 2011, dated 2013)", "key": {"RGC-5 cells": {"tested_on": "RGC-5 cells", "test": "RGC-5 cell viability under H2O2 induced oxidative stress", "type": "cell-based", "conditions": "RGC5, then 500 μM H2O2 24 hours, H2O2 alone 42.05±6.10%, n=6, read-out: RGC-5 cell viability (control: 100%)", "method": "The RGC-5 cell line was obtained from the American Type Culture Collection (ATCC, No. CRL-2302, Manassas, Va., USA). The RGC-5 cell line represents a lineage of neuronal precursor cells. The RGC-5 cells were maintained in Dulbecco's modified Eagle's medium (DMEM; Falcon, Becton Dickinson, N.J., U.S.A.) containing 10% fetal calf serum, 100 U/mL penicillin and 100 μg/mL streptomycin (Sigma-Aldrich) in a humidified atmosphere of 95% air and 5% CO2 at 37° C. Cell viability was evaluated by counting the cell number using a haemocytometer under an optical microscope.\nIn the enzyme-linked immunosorbent assay (ELISA), the cells (2.5×10^4 in each well) were plated into 96-well plates. Each well contains 200 μl of DMEM (control) without or with H2O2. Next, the cells were incubated at 37° C. for 1 day and then shifted to serum free medium for the following day. In order to stimulate oxidative stress, 500 μM H2O2 (Sigma-Aldrich 18304/k0250, St Louis, Mo., USA) was then added for 24 hours as described elsewhere. Depending on the experimental protocol, SAC or vehicle was added to some samples 15 minutes before adding H2O2."}, "[1]": {"tested_on": "cholinergic amacrine cells (ChAT immunoreactivity)", "test": "ChAT immunofluorescence of the retina after ischaemia/reperfusion", "type": "in vivo, Wistar rats", "conditions": "100 μM SAC pre-treatment", "method": "The rats (200-250 g) were anaesthetized and placed in a stereotaxic frame. The anterior chamber of one eye was cannulated with a 30-gauge needle connected to a 0.9% saline reservoir; this caused a high IOP (HIOP) of 120 mmHg for 60 minutes. Eye fundus whitening and a low ERG response confirmed induction of an ischaemic insult. A sham procedure was carried out on the controls. Drug administration involved the pre-administration (15-minute before 60-minute HIOP induced retinal ischaemia) of SAC (25, 50, 100 μM) or vehicle (saline; control). The ischemic eye of each test rat was treated with or without a single intravitreous injection of 5 μl of the test compound. In addition, SAC (100 μM) was administered to the non-ischaemic eye (normal) to see whether SAC has any adverse effects. In both cases, the paired normal eye was untreated. The rats were sacrificed and intracardially perfused with 0.9% normal saline (w/v). Then the rat retinas were removed, fixed with 4% (w/v) paraformaldehyde for 45 minutes and then transferred to 30% sucrose for cryosectioning. Sampling was carried out one or seven days after the sham-operation or induction of retinal ischaemia. […] The retinal sections were examined using a fluorescence microscope (Olympus BX61, Center Valley, Pa., USA)."}, "MMP-9": {"tested_on": "MMP-9", "test": "ELISA of MMP-9 protein in RGC-5 cells under H2O2 oxidative stress", "type": "cell-based", "conditions": "100 μM SAC 15-minute pre-treatment, 500 μM H2O2 24 hours; control 29.33±4.93, H2O2 100.70±18.80; n=6", "method": "In the enzyme-linked immunosorbent assay (ELISA), the cells (2.5×10^4 in each well) were plated into 96-well plates. Each well contains 200 μl of DMEM (control) without or with H2O2. Next, the cells were incubated at 37° C. for 1 day and then shifted to serum free medium for the following day. In order to stimulate oxidative stress, 500 μM H2O2 (Sigma-Aldrich 18304/k0250, St Louis, Mo., USA) was then added for 24 hours as described elsewhere. Depending on the experimental protocol, SAC or vehicle was added to some samples 15 minutes before adding H2O2. […] Total protein was determined using a bicinchoninic acid protein kit (Thermo Fisher Scientific Inc., IL, U.S.A.). The HIF-1 Alpha/VEGF/MMP-9 levels in the cells/medium were measured using various ELISA kits, namely HIF-1 Alpha (Uscn Life Science Inc., Wuhan 430056, China); VEGF-A (BMS277/2, Bender […], Austria) and MMP-9 Duoset (D911, R&D, Minneapolis, Minn., U.S.A.). […] The HIF-1 Alpha/VEGF/MMP-9 concentration of each sample was determined by constructing a standard curve using 100 μl of sample diluent containing various amounts of HIF-1 Alpha/VEGF/MMP-9 pure protein (0-1000 pg/ml). […] The absorbance (optical intensity, O.D.) was detected at 450 nm by spectrophotometer (ELx800, Biotek, Winooski, Vt., U.S.A.). […]"}}}
{"smiles": "C=CCSC[C@H](N)C(=O)O", "note": "[SAC, S-allyl L-cysteine]", "values": [{"measurement": "viability at 25 µM", "setting": "RGC-5 cells; 25 μM SAC 15-minute pre-incubation", "value": "47.7 ± 4.53", "unit": "%"}, {"measurement": "viability at 50 µM", "setting": "RGC-5 cells; 50 μM SAC 15-minute pre-incubation", "value": "57.5 ± 3.48", "unit": "%"}, {"measurement": "viability at 100 µM", "setting": "RGC-5 cells; 100 μM SAC 15-minute pre-incubation", "value": "70.2 ± 3.32", "unit": "%"}, {"measurement": "ChAT immunopositive amacrine cell bodies per field", "setting": "[1]; 1 day after I/R, sham 39±3, vehicle 14±1", "value": "26±2", "unit": "per field"}, {"measurement": "ChAT immunopositive amacrine cell bodies per field", "setting": "[1]; 7 days after I/R, sham 38±3, vehicle 10±5", "value": "24±5", "unit": "per field"}, {"measurement": "MMP-9 protein level (ELISA)", "setting": "MMP-9", "value": "52.55 ± 2.72", "unit": "pg/mL"}]}
